≈ marks a conversion by molar mass, not a printed value. Where “and” joins values, the source holds several entries; their conditions need not be identical. Equal values may be shown once. Read-outs that look alike come from different tables or passages of the source.
Tests used:
[1] = system: intracellular T. cruzi; assay: T. cruzi washout assay; format: cell-based, Trypanosoma cruzi; settings: 25 x IC50 for 16 days, infected Vero cells
Protocol: For any hits identified and successfully triaged, the initial focus of hit-expansion is to identify compounds with a suitable profile to run in a washout assay.,[21] In this assay, intracellular T. cruzi are treated with high doses of compounds for an extended duration (25x IC50 for 8 – 16 days), followed by compound washout and assessment of parasite relapse over 60 days to assess ability to clear all parasites, including any persisters. […] Compound series with a profile equal to or better than benznidazole can then be progressed to an in vivo efficacy model of chronic Chagas disease with a high probability of success.
At this stage, we were keen to examine our options for progression into the T. cruzi washout assay, [12],[21] and decided to move forward with 2, 14 and 16 to give coverage across both chemotypes. […] After this dosing period, the compound was washed off the infected cells, and the host cell monolayer was monitored for egressed parasites. The first day egressed parasites were detected post washout was noted down as the relapse day. In this assay, posaconazole, which is known to be ineffective in the clinic, relapsed after 10 days and benznidazole, used as the bench-mark clinical compound, relapsed after 31 / 35 days (2 replicates). We were therefore looking for compounds that relapsed at an equivalent time to benznidazole, or later, to be considered worth pursuing further.
Intracellular T. cruzi washout assays were carried out with the Silvio X10/7 strain using the protocol previously described. ^1

[2] = system: T. cruzi trypomastigotes; parameters: method as in PMID 30001347; settings: cited from earlier work
[3] = system: T. cruzi; parameters: method as in PMID 24827034, PMID 29352704; settings: clinical trials; cited from earlier work
[4] = system: intracellular T. cruzi amastigotes; assay: T. cruzi intracellular potency assay (high content imaging); format: cell-based, Trypanosoma cruzi; parameters: key to Max Effect (T. cruzi): % inhibition; 0% = DMSO control, 100% = 16 μM nifurtimox control; settings: for Emax: read-out: Max Effect (T. cruzi); for IC50: intracellular amastigotes in Vero cells, 96 h, mean of N ≥ 3, read-out: T. cruzi pIC50 (converted)
Protocol: (§1) T. cruzi intracellular potency and rate-of-kill assay (high content imaging) ^1
(§2) Silvio X10/7 T. cruzi trypomastigotes were incubated at 37°C 5% CO2 with 1.6×10^7 Vero cells overnight at MOI10 in MEM media supplemented with 10% foetal calf serum (FCS). Extracellular parasites were removed by aspirating cell culture supernatant, and washing Vero monolayer with 10 ml serum-free MEM three times. Vero cells were then harvested by trypsinization and dispensed at 2×10^3 per well (50 μl in MEM/ 1% FCS) into 384 well plates pre-stamped with compounds in DMSO using automated washer/ dispenser EL406 and liquid handling software (Biotek). Plates were then incubated at 37°C in 5% CO2 for 96 h. For rate-of-kill determination, plates were incubated for 24h, 48h, 72h and 96h.
(§3) Plates were subsequently fixed with 4% formaldehyde for 20 min, permeabilised and stained with 5 μgml^-1 Hoechst 33342/ 0.1% Triton/ PBS Thimerosal 20 min. Automated imaging was performed by an Operetta high content imaging system using 20x objective (PerkinElmer). Images were analysed with an algorithm generated in Columbus (PerkinElmer) to segment Vero cell nuclei, Vero cell cytoplasm and parasite nuclei/ kinetoplasts, reporting number of amastigotes per Vero cell, percent infected Vero cells and total number of Vero cells. Compound potencies against T. cruzi parasites were calculated in IDBS Activitybase using percent infected Vero cells and Vero toxicity curves generated using number of host cells. All data was normalised to percent inhibition based on the raw data values for the 100% effect control (16 μM nifurtimox) and the 0% effect control (DMSO) on each plate at each time point. Curve fitting was carried out using a four-parameter equation as previously described. ^2 For rate-of-kill experiments the percent infected cells at each compound concentration was plotted against time.

[5] = system: host Vero cell; assay: Vero host cell toxicity in the intracellular T. cruzi assay; format: cell-based; parameters: key to Max Effect (Vero): % inhibition; 0% = DMSO control, 100% = 16 μM nifurtimox control; settings: for EC50 / IC50: Chlorocebus sabaeus; for EC50: Vero; for IC50: host Vero cell, read-out: Vero pIC50 (converted)
Protocol: as §1, §2, §3

[6] = target: Tc-CYP51 (Trypanosoma cruzi, UniProt Q7Z1V1); assay: T. cruzi sterol 14α-demethylase (CYP51) enzyme assay; format: biochemical; settings: for Emax: read-out: Tc CYP51 Max Effect; for fold more potent against the parasites than against Tc-CYP51: urea series
Tc-CYP51, sequence (Q7Z1V1 whole entry): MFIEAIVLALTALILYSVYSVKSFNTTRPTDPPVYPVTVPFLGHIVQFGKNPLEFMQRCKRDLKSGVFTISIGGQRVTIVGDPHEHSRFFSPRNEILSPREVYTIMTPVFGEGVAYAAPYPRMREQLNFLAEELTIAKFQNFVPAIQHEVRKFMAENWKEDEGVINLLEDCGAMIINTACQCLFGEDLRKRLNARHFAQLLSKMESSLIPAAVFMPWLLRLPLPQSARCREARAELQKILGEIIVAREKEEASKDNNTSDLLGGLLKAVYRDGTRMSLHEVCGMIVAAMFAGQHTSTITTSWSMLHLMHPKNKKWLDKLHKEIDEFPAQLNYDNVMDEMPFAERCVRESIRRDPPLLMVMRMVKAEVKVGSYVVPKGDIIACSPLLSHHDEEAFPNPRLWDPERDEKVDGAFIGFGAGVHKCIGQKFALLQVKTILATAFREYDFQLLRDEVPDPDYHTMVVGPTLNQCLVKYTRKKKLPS
Protocol: T. cruzi sterol 14α-demethylase (CYP51) enzyme assay
Potency against T. cruzi CYP51 was determined using a previously described fluorescence assay. Average potency for compound 1 was determined with three experimental replicates. Potencies in Fig.3 are from single experimental replicates. ^5

[7] = Kinetic aqueous solubility by CAD; format: physicochemical; settings: kinetic from dmso stock
[8] = Mouse liver microsomal intrinsic clearance; format: in vitro ADME
[9] = Human liver microsomal intrinsic clearance; format: in vitro ADME
[10] = ChromLogD pH7.4 (chromatographic hydrophobicity index), PFI, LLE; settings: for PFI: ChromLogDpH7.4 + no. aromatic rings; for chromatographic logD: pH 7.4
Description: [23] Alongside PFI, LLE (ligand lipophilic efficiency, T. cruzi pIC50 - ChromLogDpH7.4) was also monitored to identify changes where the impact on potency was not driven by increasing lipophilicity.

[11] = system: T. cruzi trypomastigotes; assay: T. cruzi trypomastigote assay; format: cell-based, Trypanosoma cruzi
Protocol: T. cruzi trypomastigote assay
Trypomastigote assays were carried out with T. cruzi Silvio X10/7 trypomastigotes using the protocol previously described. ^1

[12] = system: T. cruzi epimastigotes; assay: T. cruzi oxygen consumption assay; format: cell-based; settings: Trypanosoma cruzi, read-out: T. cruzi oxygen consumption pIC50 (converted)
Protocol: T. cruzi oxygen consumption assay
Oxygen consumption was measured using T. cruzi epimastigotes and the MitoXpress Xtra Oxygen Consumption Assay (Agilent) as previously reported. ^6

[13] = target: Tc-MetRS (Trypanosoma cruzi, UniProt Q4D6H2); assay: T. cruzi aminoacyl tRNA synthetase enzyme assay (TcMetRS); format: biochemical
Tc-MetRS, sequence (Q4D6H2 entry or part of it): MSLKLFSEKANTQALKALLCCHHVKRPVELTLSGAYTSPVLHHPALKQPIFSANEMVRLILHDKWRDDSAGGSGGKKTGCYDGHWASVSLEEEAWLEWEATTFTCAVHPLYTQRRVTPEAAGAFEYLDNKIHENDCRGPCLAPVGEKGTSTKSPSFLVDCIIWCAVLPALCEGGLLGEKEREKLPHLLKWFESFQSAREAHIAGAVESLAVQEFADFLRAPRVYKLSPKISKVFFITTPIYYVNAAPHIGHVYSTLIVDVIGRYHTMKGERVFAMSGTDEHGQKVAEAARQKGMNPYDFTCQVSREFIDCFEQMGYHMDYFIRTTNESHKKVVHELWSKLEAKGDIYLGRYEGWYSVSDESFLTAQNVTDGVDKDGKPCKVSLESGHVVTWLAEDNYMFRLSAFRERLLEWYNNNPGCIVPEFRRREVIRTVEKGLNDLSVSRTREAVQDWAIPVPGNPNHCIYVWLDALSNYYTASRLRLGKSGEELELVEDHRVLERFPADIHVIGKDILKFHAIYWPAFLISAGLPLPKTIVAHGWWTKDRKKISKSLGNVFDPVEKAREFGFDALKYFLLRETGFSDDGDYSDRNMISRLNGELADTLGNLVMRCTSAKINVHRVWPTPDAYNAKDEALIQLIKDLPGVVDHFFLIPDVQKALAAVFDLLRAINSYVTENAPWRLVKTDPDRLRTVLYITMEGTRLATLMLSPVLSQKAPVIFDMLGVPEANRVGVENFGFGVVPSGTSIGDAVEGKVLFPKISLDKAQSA
Protocol: T. cruzi aminoacyl tRNA synthetase enzyme assays
Assays were run for 2 hours.

[14] = target: T. cruzi proteasome (Trypanosoma cruzi, UniProt V5BU39)
Protocol: T. cruzi proteasome enzyme assay
The pIC50 of compound 1 was measured in a T. cruzi proteasome assay (N = 2 experimental replicates, each with n = 3 technical replicates) as previously described, using a recombinantly expressed Δβ1Δβ2 mutant proteasome (measuring chymotrypsin site activity only). ^4

[15] = system: intracellular T. cruzi amastigotes; assay: Rate-of-kill assay against intracellular amastigotes; format: cell-based, Trypanosoma cruzi
Protocol: as §1, §2
Plates were subsequently fixed with 4% formaldehyde for 20 min, permeabilised and stained with 5 μgml^-1 Hoechst 33342/ 0.1% Triton/ PBS Thimerosal 20 min. […] Images were analysed with an algorithm generated in Columbus (PerkinElmer) to segment Vero cell nuclei, Vero cell cytoplasm and parasite nuclei/ kinetoplasts, reporting number of amastigotes per Vero cell, percent infected Vero cells and total number of Vero cells. Compound potencies against T. cruzi parasites were calculated in IDBS Activitybase using percent infected Vero cells and Vero toxicity curves generated using number of host cells. […]

[16] = target: Tc-HisRS (Trypanosoma cruzi, UniProt Q4DA54); assay: biochemical
Tc-HisRS, sequence (Q4DA54 entry or part of it): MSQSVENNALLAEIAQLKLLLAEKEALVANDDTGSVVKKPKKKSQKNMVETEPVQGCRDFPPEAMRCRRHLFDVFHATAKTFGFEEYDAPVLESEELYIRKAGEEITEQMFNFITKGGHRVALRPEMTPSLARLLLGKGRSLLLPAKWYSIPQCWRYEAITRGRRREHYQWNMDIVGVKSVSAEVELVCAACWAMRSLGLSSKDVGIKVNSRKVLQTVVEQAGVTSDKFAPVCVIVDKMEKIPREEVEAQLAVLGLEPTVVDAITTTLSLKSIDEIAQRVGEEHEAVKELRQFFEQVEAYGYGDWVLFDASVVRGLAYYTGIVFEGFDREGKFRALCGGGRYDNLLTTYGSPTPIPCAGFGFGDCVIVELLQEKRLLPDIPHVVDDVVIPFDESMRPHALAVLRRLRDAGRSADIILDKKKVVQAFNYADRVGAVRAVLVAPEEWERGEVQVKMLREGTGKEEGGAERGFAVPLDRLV
Protocol: TcHisRS assay wells contained TcHisRS assay buffer (30 mM Tris; pH 8, 140 mM NaCl, 40 mM MgCl2, 30 mM KCl, 0.01% (v/v) Brij and 1 mM DTT) plus 50 nM TcHisRS, 8 μM ATP, 5 μM L-histidine and 1 U/mL pyrophosphatase. Assays were run for 2 hours.

[17] = Trypanosoma cruzi, individual replicate
[18] = individual replicate, read-out: Tc CYP51 pIC50 (converted)
[19] = kinetic, CAD, read-out: Aqueous solubility

SMILES: CC[C@@H]([C@H](C)O)n1ncn(-c2ccc(N3CCN(c4ccc(OC[C@@H]5CO[C@@](Cn6cncn6)(c6ccc(F)cc6F)C5)cc4)CC3)cc2)c1=O [posaconazole]
- relapse day post washout [1]: 10 days
- activity against trypomastigotes [2]: only very weakly active
- treatment failures in patients [3]: 70 – 90%

SMILES: CC1CS(=O)(=O)CCN1/N=C/c1ccc([N+](=O)[O-])o1 (stereo not drawn) [nifurtimox]
- activity against trypomastigotes [2]: good activity

SMILES: COc1ccc(NC(=O)NC2C(=O)Nc3ccccc3N(c3ccccc3)C2=O)cc1 (stereo not drawn) [Compound 2, 1-(2,4-dioxo-1-phenyl-2,3,4,5-tetrahydro-1H-benzo[b][1,4]diazepin-3-yl)-3-(4-methoxyphenyl)urea]
- Emax [4, 17]: 89%
- IC50 ([4]; Trypanosoma cruzi): 1.26 µM
- Hill slope (T. cruzi) ([4]; individual replicate): 2.1 and 3.4 and 3.0 and 9.3 and 1.5 and 2.5 and 0.659
- Max Effect (T. cruzi) ([4]; individual replicate): 99 and 83 and 84 and 94 and 93 and 92 and 88
- pEC50 (T. cruzi) ([4]; individual replicate): 5.8 and 5.7 and 6.3 and 5.9
- EC50 ([5]; individual replicate): > 50.1 µM
- IC50 [5]: > 50.1 µM
- Max Effect (Vero) ([5]; individual replicate): 26 and 22 and 25 and -6 and 27 and 29 and 1.42 and 36
- Tc CYP51 Hill ([6]; individual replicate): 1.1
- Emax ([6]; individual replicate): 95%
- IC50 [6, 18]: 7.94 µM
- fold more potent against the parasites than against Tc-CYP51 [6]: 10 fold
- solubility [7, 19]: 64 µM (≈ 26.7 µg/mL)
- MLM CLi ([8]; mouse liver microsomes): <0.5 mL/min/g
- HLM CLi ([9]; human liver microsomes): <0.4 mL/min/g
- PFI [10]: 7.0
- chromatographic logD [10]: 4
- relapse day post washout [1]: 10 days

SMILES: CC(C)N(C(=O)CN1C(=O)C(N)C(=O)N(c2ccccc2)c2ccccc21)c1ccccc1 (racemic) [Compound 14, 2-(3-amino-2,4-dioxo-5-phenyl-2,3,4,5-tetrahydro-1H-benzo[b][1,4]diazepin-1-yl)-N-isopropyl-N-phenylacetamide]
- Emax [4, 17]: 89%
- IC50 ([4]; Trypanosoma cruzi): 0.2 µM
- Hill slope (T. cruzi) ([4]; individual replicate): 4.0 and 12.9 and 3.7 and 29.0 and 4.4 and 2.2 and 5.2
- Max Effect (T. cruzi) ([4]; individual replicate): 87 and 86 and 88 and 93 and 92 and 82
- pEC50 (T. cruzi) ([4]; individual replicate): 6.6 and 6.8 and 7.0 and 6.7
- EC50 ([5]; individual replicate): > 50.1 µM
- IC50 [5]: > 50.1 µM
- Max Effect (Vero) ([5]; individual replicate): -6.63 and 8 and -0.0425 and 13 and 41 and 1.19 and 11
- pEC50 (Vero) ([5]; individual replicate): < 4.3
- solubility [7]: > 500 µM
- MLM CLi ([8]; mouse, microsomes): 3.4 mL/min/g
- HLM CLi ([9]; human, microsomes): <0.4 mL/min/g
- PFI [10]: 8.0
- chromatographic logD [10]: 5
- relapse day post washout [1]: 6 days

SMILES: COc1ccc(CN2C(=O)C(N)C(=O)N(c3ccc(OC)cc3)c3ccccc32)cc1 (stereo not drawn) [Compound 16, 3-amino-1-(4-methoxybenzyl)-5-(4-methoxyphenyl)-1,5-dihydro-2H-benzo[b][1,4]diazepine-2,4(3H)-dione]
- Emax [4, 17]: 86%
- EC50 ([4]; Trypanosoma cruzi, individual replicate, read-out: pEC50 (T. cruzi) (converted)): 0.316 µM
- IC50 ([4]; Trypanosoma cruzi): 0.316 µM
- Hill slope (T. cruzi) ([4]; individual replicate): 3.7 and 4.5 and 5.7 and 13.7
- Max Effect (T. cruzi) ([4]; individual replicate): 81 and 84 and 91
- pEC50 (T. cruzi) ([4]; individual replicate): 6.6
- EC50 ([5]; individual replicate): > 50.1 µM
- IC50 [5]: > 50.1 µM
- Max Effect (Vero) ([5]; individual replicate): 21 and 44 and 30 and 5.55
- solubility [7]: > 270 µM
- MLM CLi ([8]; mouse, microsomes): 7.6 mL/min/g
- HLM CLi ([9]; human, microsomes): <0.4 mL/min/g
- PFI [10]: 7.2
- chromatographic logD [10]: 4.2
- relapse day post washout [1]: 6 days

SMILES: O=C(Cn1ccnc1[N+](=O)[O-])NCc1ccccc1 [benznidazole, reference compound]
- relapse day post washout [1]: 31 days and 35 days
- activity against trypomastigotes [2]: good activity

SMILES: Cc1ccc(NC(=O)NC2C(=O)Nc3ccccc3N(c3ccccc3)C2=O)cc1 (stereo not drawn) [Compound 1, 1-(2,4-dioxo-1-phenyl-2,3,4,5-tetrahydro-1H-benzo[b][1,4]diazepin-3-yl)-3-(p-tolyl)urea]
- Emax [4, 17]: 84%
- IC50 ([4]; Trypanosoma cruzi): 1 µM
- Hill slope (T. cruzi) ([4]; individual replicate): 2.7 and 4.5 and 6.2 and 2.8 and 1.2 and 2.0 and 4.2
- Max Effect (T. cruzi) ([4]; individual replicate): 87 and 88 and 90 and 83
- pEC50 (T. cruzi) ([4]; individual replicate): 5.8 and 6.2 and 6.1 and 6.0
- EC50 ([5]; individual replicate): > 50.1 µM
- IC50 [5]: > 50.1 µM
- Max Effect (Vero) ([5]; individual replicate): 13 and 1.41 and 11 and 15 and 2.25 and -0.282
- Emax ([11]; Trypanosoma cruzi, individual replicate, read-out: Tc-Trypo Max Effect): 77%
- IC50 ([11]; Trypanosoma cruzi, read-out: T. cruzi trypomastigote pIC50 (converted)): 0.251 µM
- Tc-Trypo Hill ([11]; individual replicate): 0.9 and 1.4 and 1.2 and 1.3
- Tc-Trypo Max Effect ([11]; individual replicate): 79
- Tc-Trypo pEC50 ([11]; individual replicate): 7.2 and 7.0 and 6.3 and 6.4
- IC50 ([6]; average of three experimental replicates, read-out: Tc-CYP51 pIC50 (converted)): 15.8 µM
- Tc CYP51 Hill ([6]; individual replicate): 1.3 and 1.1 and 1.4
- Tc CYP51 Max Effect ([6]; individual replicate): 83 and 84
- Emax ([6]; individual replicate): 85%
- IC50 [6, 18]: 6.31 µM and 25.1 µM
- fold more potent against the parasites than against Tc-CYP51 [6]: 10 fold
- IC50 [12]: > 50.1 µM
- IC50 [13]: > 100 µM
- Tc Proteasome Hill ([14]; individual replicate): 1.1 and 0.9
- Tc Proteasome Max Effect ([14]; individual replicate): 62 and 68
- Tc Proteasome pIC50 ([14]; individual replicate): 4.0 and 4.2
- Tc-proteasome pIC50 ([14]; Δβ1Δβ2 mutant proteasome, chymotrypsin site): 4.1
- Rate-of-Kill: cidal activity within [15]: Cidal activity within 96 hours ^f
- solubility [7, 19]: 35 µM (≈ 14 µg/mL)
- MLM CLi ([8]; mouse liver microsomes): 0.8 mL/min/g
- HLM CLi ([9]; human liver microsomes): <0.4 mL/min/g
- PFI [10]: 7.6
- chromatographic logD [10]: 4.6
- IC50 [16]: > 100 µM

SMILES: C[C@@H](c1nc(-c2ccc(C#N)cc2)cs1)[C@@](Cn1cncn1)(OCOP(=O)(O)O)c1ccc(F)cc1F [fosravuconazole]
- treatment failures in patients [3]: 70 – 90%

— article PMC12208134, “Structure-activity relationships of 1,5-dihydro-2H-benzo[b][1,4]diazepine-2,4(3H)-diones as inhibitors of Trypanosoma cruzi” (RSC medicinal chemistry, 2025)
